What all share (format): in vivo
Test [1] concerns KKA^y mice. Kind of test: Test Example 2: hypoglycemic effect (blood glucose level in serum). The settings on record: in powder diet, pioglitazone 5 mg/kg/day, extract powder of Preparation Example 1 1.5 g/kg/day. The text has this:
(§1) Divided into groups of 8 mice, 7-week old KKA^y mice which were genetically obese diabetic animals were used. Group (a) was fed only on a powder diet (CE-2, produced by Clea Japan, Inc.) for 5 weeks, and Group (b), Group (c) and Group (d) were given pioglitazone, the extract powder of Preparation Example 1, and pioglitazone and the extract powder of Preparation Example 1, respectively, for 5 weeks by preparing a powder diet so that the daily dose of each therein was of the values shown in Table 1. During the period of the test, body weights were measured, and the formulation of the diet were adjusted in accordance with an increase or decrease in body weight to keep the doses per day in Group (b) and Group (d) constant.
Tests were carried out in the same manner as in Test Example 1. The blood was collected 1 week and 5 weeks after commencement of the administration, and the serum was separated to measure the blood glucose levels.

A short description of test [2]: Test Example 1: body weight gain inhibiting effect. The conditions noted are these: KKA^y mice, 8/group, in powder diet, pioglitazone 5 mg/kg/day, extract powder of Preparation Example 1 1.5 g/kg/day.
Description: as §1
The results were evaluated by comparing the body weight gain observed in each of Groups (a), (b), (c) and (d) (Student's t-test).

Test [3] concerns KKA^y mice. Kind of test: Test Example 4: hypoglycemic effect (blood glucose level in serum). The settings on record: in powder diet, pioglitazone 5 mg/kg/day, extract powder of Preparation Example 2 6.4 g/kg/day. The procedure:
(§2) Divided into groups of 7 mice, 7-week old KKA^y mice which were genetically obese diabetic animals were used, and the tests were carried out in the same manner as in Test Example 1, except Group (c) and (d) were given the extract powder of Preparation Example 2, and pioglitazone and the extract powder of Preparation Example 2, respectively, for 4 weeks by preparing the powder diet so that the daily dose each therein was of the values shown in Table 4.
The test was carried out in the same manner as in Test Example 3. The blood was collected 1 week and 4 weeks after commencement of the administration, and the serum was separated to measure the blood glucose levels.
The results were evaluated in the same manner as in Test Example 2.

A short description of test [4]: Test Example 3: body weight gain inhibiting effect. The settings on record: KKA^y mice, 7/group, in powder diet, pioglitazone 5 mg/kg/day, extract powder of Preparation Example 2 6.4 g/kg/day. The procedure:
as §2
The results were evaluated in the same manner as in Test Example 1.

Structures can show the parent of a compound that is named as a salt.

Consider `CCc1ccc(CCOc2ccc(CC3SC(=O)NC3=O)cc2)nc1` (centres unmarked) [Pioglitazone, pioglitazone hydrochloride], for which the entries for the “Blood glucose level, 1 week after the administration” value in the test with KKA^y mice [1] (1 week) and with KKA^y mice [3] (1 week) were 404 ± 28 mg/dL and 320 ± 30 mg/dL, respectively. Further, the “Blood glucose level, 5 weeks after the administration” value in the test on KKA^y mice [1] (5 weeks) is 527 ± 18 NS mg/dl. The “Body weight gain, 1 week after administration” value in test [2] (1 week) is recorded as 5.2 ± 0.2 g; in test [4] (1 week) it was 5.3 ± 0.4 g. The “Body weight gain, 5 weeks after administration” value in test [2] (5 weeks) stood at 11.8 ± 0.6 g. Also, the “Blood glucose level, 4 weeks after the administration” value in the test on KKA^y mice [3] (4 weeks) came out at 587 ± 24 NS mg/dl. In test [4] (4 weeks), the “Body weight gain, 4 weeks after administration” value was determined as 10.7 ± 0.5 g.

The values are drawn from patent publication US20060193925A1, “Side effect-relieving agents and/or hypoglycemic effect enhancers for thiazolidine compounds” (KANEBO, LIMITED, priority 2001, published 2006).
